Data on 15 compounds can be found in ChEMBL document CHEMBL3352543, “Synthesis and structure-activity relationship of novel cinnamamide derivatives as antidepressant agents” (Bioorg Med Chem Lett, 2014).

Data set [1] relates to Mus musculus. The experiment in a line: Toxic CNS activity in C57BL/6 mouse assessed as locomotor activity by measuring exploratory activity counts at 10 mg/kg, ig by open-field test (reference value: 94.50 +/- 6.18 counts). In kind it is toxicity, organism-based. Also on record: dose 10 mg/kg, route intragastric. The conditions noted are these: in vivo, po.
For data set [2], the system named is Mus musculus. The experiment in a line: Antidepressant activity in C57BL/6 mouse assessed as decrease in immobility duration at 10 mg/kg, ig by tail suspension test. In kind it is functional. Conditions: C57BL/6, Tail, po, route intragastric.
The test system of data set [3] is Mus musculus. The experiment in a line: Antidepressant activity in C57BL/6 mouse assessed as decrease in immobility duration at 10 mg/kg, ig by forced swim test. Type of data set: functional. The conditions noted are these: C57BL/6, po, route intragastric.
The nature of data set [4]: Solubility in water. Conditions: buffer. In kind it is physicochemical.
In data set [5] the test system is Mus musculus. The experiment in a line: Antidepressant activity in ig dosed C57BL/6 mouse assessed as decrease in immobility duration by tail suspension test. In kind it is functional, organism-based.
Data set [6] concerns Mus musculus. As to the kind of experiment: Antidepressant activity in ig dosed C57BL/6 mouse assessed as decrease in immobility duration by forced swim test. Type of data set: functional, organism-based.
Data set [7] concerns Mus musculus. The experiment in a line: Antidepressant activity in C57BL/6 mouse assessed as decrease in immobility duration at 2.5 mg/kg, ig by forced swim test. In kind it is functional. Conditions: C57BL/6, po, route intragastric.
In data set [8] the test system is Mus musculus. The experiment in a line: Antidepressant activity in C57BL/6 mouse assessed as decrease in immobility duration at 5 mg/kg, ig by forced swim test. In kind it is functional. The conditions noted are these: C57BL/6, po, route intragastric.

For `CC(C)CNC(=O)c1cc2c(c(C(F)(F)F)c1)OCO2`, the Activity in the data set with Mus musculus [1] came to 93.2. The inhibition in vivo (usually the percentage by which the read-out fell short of the control) at 10 mg/kg in the data set on Mus musculus [2] was 33.1%.
For `CC(C)CNC(=O)/C=C/c1ccc2c(c1)OCO2` [FOGARAMIDE], in that order: 89.24 and 13.2%.
For `CC(C)CNC(=O)/C=C/c1cc(Cl)c2c(c1)OCO2`, in that order: 94.75 and 29.1%.
With `O=C(c1cc2c(c(C(F)(F)F)c1)OCO2)N1CCCCC1`, in the data set on Mus musculus [1], the Activity is reported as 87.4. For the same compound, in the data set with Mus musculus [2], the inhibition in vivo at 10 mg/kg was found to be 37.1%.
For `CC(C)CNC(=O)CCc1cc2c(c(C(F)(F)F)c1)OCO2`, in that order: 86.6 and 28.8%.
For `COc1cc(/C=C/C(=O)NCC(C)C)cc2c1OCO2`, in that order: 100.92 and 11.7%.
On to `CNCCC(Oc1ccc(C(F)(F)F)cc1)c1ccccc1` (stereo not drawn) [FLUOXETINE], for which, in the data set with Mus musculus [1], the Activity was determined as 102. Moreover, the inhibition in vivo at 10 mg/kg in the data set with Mus musculus [2] worked out at 39.4%; in the data set on Mus musculus [3], 29%.
On to `O=C(/C=C/c1cc2c(c(C(F)(F)F)c1)OCO2)N1CCCCC1`, for which, in the data set with Mus musculus [1], the Activity is on record as 83.6. In addition, the inhibition in vivo at 10 mg/kg with Mus musculus [2] is 31.5%.
On to `O=C(/C=C/c1cc2c(c(C(F)(F)F)c1)OCO2)N1CCNCC1`, for which the Activity in the data set with Mus musculus [1] was 91.54. Also, the inhibition in vivo at 10 mg/kg in the data set with Mus musculus [2] worked out at 21.8%. The solubility entry in data set [4] is “soluble”.
For the compound `CN(C)C(=O)/C=C/c1cc2c(c(C(F)(F)F)c1)OCO2`, the Activity with Mus musculus [1] worked out at 84. Moreover, the inhibition in vivo at 10 mg/kg in the data set on Mus musculus [2] worked out at 12.6%.
The matching figures for `CC(C)CNC(=O)/C=C/c1cc(I)c2c(c1)OCO2`: 94.42 and 15.1%.
Consider `CCN(CC)C(=O)/C=C/c1cc2c(c(C(F)(F)F)c1)OCO2`, for which the Activity in the data set on Mus musculus [1] turned out to be 95.3. The inhibition in vivo at 10 mg/kg in the data set on Mus musculus [2] came to 40.2%.
As for `CN1CCN(C(=O)/C=C/c2cc3c(c(C(F)(F)F)c2)OCO3)CC1`, the Activity in the data set on Mus musculus [1] was found to be 86.2. For the same compound, in the data set on Mus musculus [2], the inhibition in vivo at 10 mg/kg stood at 24%. The solubility entry in data set [4] is given as “soluble”.
In the case of `CC(C)CNC(=O)/C=C/c1cc2c(c([N+](=O)[O-])c1)OCO2`, the Activity in the data set with Mus musculus [1] was 98. For the same compound, in the data set on Mus musculus [2], the inhibition in vivo at 10 mg/kg amounted to 6.4%.
Take `CC(C)CNC(=O)/C=C/c1cc2c(c(C(F)(F)F)c1)OCO2`: the Activity in the data set on Mus musculus [1] was 99.4. In addition, the inhibition in vivo at 10 mg/kg was determined as 42.5% in the data set with Mus musculus [2] and 43.5% with Mus musculus [3]. Besides, the inhibition entry with Mus musculus [5] and in the data set on Mus musculus [6] was “Dose-dependent effect” in each case. Besides, the inhibition in vivo at 2.5 mg/kg in the data set on Mus musculus [7] was found to be 20.8%. The inhibition in vivo at 5 mg/kg with Mus musculus [8] was 34.4%.
